Test results published in patent US20150159169A1, “Plants Tolerant to HPPD Inhibitor Herbicides” (Bayer CropScience AG, priority 2009, published 2015).
“Also recorded” adds a separate entry of the source.

How the values were obtained:
[1] = test system: T0 rice plants containing FMP27e; assay: Rice glasshouse response to tembotrione, injury classes; type: in vivo; settings: 100 g AI/ha, 7 DAT
Procedure: (§1) T0 rooted plantlets (either selected on phosphinothricin alone or on phosphinothricin supplemented with tembotrione) were transferred to soil in the glasshouse. Following an acclimation period, sufficiently grown plants were treated with the different HPPD inhibitor herbicides. As an example, T0 plants were sprayed with tembotrione of formulation type WP20 (100 g AI/ha) supplemented with ammonium sulfate and methyl ester raps oil. Seven days after the spray application, the symptoms due to the application of the herbicide were evaluated and compared the symptoms observed on wild type plants submitted to the same treatment.
(§2) The plants were classified in three categories based on the phenotype developed in response to the herbicide seven days after the treatment.

[2] = test system: T0 rice plants containing AtHPPD; assay: as above; type: in vivo; settings: 100 g AI/ha, 7 DAT
Procedure: as §1, §2

wild type rice plants = assay: as above; type: in vivo; settings: 100 g AI/ha, 7 DAT; no transgene
Procedure: as §1, §2

[3] = test system: rice shoots containing FMP27e; assay: Bleaching of rice shoots on MS/2 with tembotrione; type: cell-based; settings: 2 weeks
Procedure: (§3) Rice transformation is achieved using methods well known in the art. Briefly, the Agrobacterium tumefaciens mediated transformation of rice was performed using immature embryos, from the restorer line 6G4317. Briefly, panicles from donor plants were harvested 8-12 days after pollination. The lemma of the immature seed was removed. Seeds were thereafter sterilized using a NaOCl based solution and Tween. The seeds were preinduced with […]. Agrobacterium tumefaciens cells are then co-cultivated with the preinduced seeds in presence of acetosyringone for 4 days at 24° C. in the dark. Thereafter, coleoptile from embryos are removed and washed, then put on a media supplemented with phosphinothricin for 3 weeks at 28° C. under a photoperiod rhythm of 16 hours. Then the growing calli were cut off from the embryos, and transferred to fresh media containing triacillin, phosphinothricin, L-proline and copper (II) sulfate.
(§4) For each callus-line and per Tembotrione concentration, 3 shoots, and randomly isolated from different callus pieces, were transferred to MS/2 with Tembotrione. As a general rule, transfer of the shoots from regeneration medium to MS/2 occurred 9 weeks after calli had been put on regeneration medium.
(§5) Cultures were incubated at 26.5° C. (16 hrs. photoperiod) and evaluation of symptoms occurred 2 weeks later.
(§6) New developing leaves of the shoots transferred have been scored on the basis of bleaching and categorized in 3 groups:
(§7) a) no bleaching b) intermediate bleaching c) complete bleaching
(§8) Within the category Intermediate bleaching′ a distinction has been made between shoots having new leaves showing only very little bleaching symptoms and thus tending to green leaves, and shoots with new leaves almost completely bleached.

[4] = test system: rice shoots containing AtHPPD; assay: Bleaching of rice shoots on MS/2 with tembotrione; type: cell-based; settings: 2 weeks
Procedure: as §3, §4, §5, §6, §7, §8

[5] = target: Kordia algicida HPPD "SEQ ID No. 5" (FMP27e) (Kordia algicida, UniProt A9DQF2); assay: HPLC assay of HPPD in vitro kinetic properties; type: biochemical
Procedure: Km, Vmax, and kcat values for different HPPD enzyme preparations and Ki, K1=Kon, and K−1=Koff for different HPPD inhibitors were determined using a HPLC assay for measurements of HPPD activity. […] All assays were started by the addition of HPPD enzyme to the assay mixture and stopped at a series of times between 0 and 240 s by addition of 200 μl of the reaction mixture to reaction assay tubes containing 20 μl 10% perchloric acid. Precipitated protein was pelleted by a 5 minute centrifugation at 10,000 g.
For Km and Vmax value determinations the initial rates of the HPPD reaction at different substrate concentrations were determined from plots of HGA formed versus time and fitted to the Michaelis-Menten equation for unireactant enzymes using the ID Business Solutions Ltd. (idbs.com) XLfit software suite.

[6] = test system: soybean events expressing the FMP27 HPPD protein; assay: Soybean greenhouse response to tembotrione; type: in vivo; settings: 100 g AI/ha, ten days after application; eight events
Procedure: Plants containing the transgene were then sprayed with HPPD inhibitor herbicides, as for example with tembotrione at a rate of 100 g AI/ha. Ten days after the application the symptoms due to the application of the herbicide were evaluated and compared to the symptoms observed on wild type plants under the same conditions. Eight events expressing the FMP27 HPPD protein have been generated from the green shoots of above and were transferred to the greenhouse. Four weeks after acclimation, i.e. plants at a developmental stage of 3-4 internodes were treated with 100 g AI/ha tembotrione prepared from a WP 20 formulation supplemented with ammonium sulfate and methyl ester raps oil. Ten days after application, the symptoms caused by the application of the HPPD inhibitor herbicide were evaluated and compared to the symptoms observed on treated non-transgenic wild-type soybean plants.

Chain of Kordia algicida HPPD "SEQ ID No. 5" (FMP27e) (A9DQF2 entry or part of it): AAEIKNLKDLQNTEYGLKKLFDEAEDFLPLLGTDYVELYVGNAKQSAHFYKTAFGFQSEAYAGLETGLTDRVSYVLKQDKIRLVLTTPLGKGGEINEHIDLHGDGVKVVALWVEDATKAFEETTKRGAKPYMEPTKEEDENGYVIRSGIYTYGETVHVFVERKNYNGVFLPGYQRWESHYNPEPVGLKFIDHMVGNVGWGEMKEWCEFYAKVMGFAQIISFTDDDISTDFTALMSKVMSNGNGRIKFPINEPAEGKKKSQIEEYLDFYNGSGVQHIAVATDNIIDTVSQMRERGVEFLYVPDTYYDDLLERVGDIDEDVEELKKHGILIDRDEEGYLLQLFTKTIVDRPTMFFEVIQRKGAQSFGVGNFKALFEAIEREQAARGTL

## CS(=O)(=O)c1ccc(C(=O)C2C(=O)CCCC2=O)c(Cl)c1COCC(F)(F)F [Tembotrione, 2-[2-chloro-4-(methylsulfonyl)-3-[(2,2,2,-tri-fluoroethoxy)methyl]benzoyl]-1,3-cyclo-hexanedione]
[1]
  Class I, number of plants (no injuries): 2
  Class II, number of plants (injury: 10-40%): 17
  Class III, number of plants (injury: 41-100%): 4
[2]
  Class I, number of plants (no injuries): 1
  Class II, number of plants (injury: 10-40%): 13
  Class III, number of plants (injury: 41-100%): 9
Wild type rice plants
  Class I, number of plants (no injuries): 0
  Class II, number of plants (injury: 10-40%): 0
  Class III, number of plants (injury: 41-100%): 20
[3]; 1 μM
  N^o of shoots completely bleached: 10
  N^o of shoots with intermediate bleaching: 19
  N^o of shoots without bleaching: 28
[3]; 5 μM
  N^o of shoots completely bleached: 36
  N^o of shoots with intermediate bleaching: 21
  N^o of shoots without bleaching: 0
[4]; 1 μM
  N^o of shoots completely bleached: 12
  N^o of shoots with intermediate bleaching: 19
  N^o of shoots without bleaching: 27
[4]; 5 μM
  N^o of shoots completely bleached: 58
  N^o of shoots with intermediate bleaching: 2
  N^o of shoots without bleaching: 0
[5]
  Ki: 33 µM
[5]; read-out: k1 (=Kon)
  kon: 490 M⁻¹ s⁻¹
[5]; read-out: k−1 (=Koff)
  koff: 0.016 s⁻¹
[6]
  bleaching symptoms of events: Two of the eight events didn't show any bleaching phenotype; also recorded: One event showed transitory light bleaching symptoms but recovered 14 days after tembotrione application; also recorded: remaining five events exhibited the bleaching like non-transgenic wild-type soybean plant
